Measured values from patent publication EP1332756A2, “Compositions and methods for restoring a normal pattern of imprinting to cells” (priority 1996, dated 1998).
Like-named read-outs stand apart in the source and are kept apart here.

How the values were obtained:
tumor cells with LOI = assay: In vitro effect of NCI lead compounds on LOI (allele ratio), saline as negative control; assay type: cell-based; details: for effective concentration / Allele ratio 1.0=complete LOI: in vitro; for Allele ratio 1.0=complete LOI: at the effective concentration, saline 1.0
Method: Based on the results showing that 5-aza-2'-deoxycytidine can restore normal imprinting to tumor cells with LOI, an analysis was performed using the drug discovery program described in Weinstein et al. (1997) Science 275:343-349, herein incorporated by reference. […] The highest correlations were as follows: 127716, 619003, 626883, 624646, 145118, 1850512, 626884, 626886, 622810, 176889, 622616, 620358, 619948, 622461, 624645, 15309, 638737, 294734, 112152, 153174 204816, 79037, 628082, 620319 (NCI reference numbers). These are considered lead compounds to determine whether they will restore normal imprinting or could be chemically modified to do so.
As a first test of this approach, the in vitro effect of 12 of these compounds were analyzed with saline as a negative control.

cancer cells = assay: Hollow fiber assay of in vivo cytotoxic effects; details: threshold for referral for xenograft testing
Excerpt: The compounds were additionally tested for their in vivo cytotoxic effects on cancer cells, using a hollow fiber assay as described in Hollingshead et al. (1995) Life Sci. 57:131-141, herein incorporated by reference. […] Thus, several new potential effective chemotherapeutics were identified for tumors and/or doses not taught in the literature.

[1] = system: Cells having LOI, (Group A); assay: NCI database search for compounds effective against cell lines with LOI (Group A) but not those without LOI (Group B); details: lead compounds still to be tested
H19 promoter CpG island = assay: Southern analysis of methylation of the H19 promoter CpG island (Pst I and Sma I); assay type: cell-based, human
Method: (§1) Analysis of DNA Methylation. For quantitative analysis of DNA methylation, genomic DNA was prepared as described (Rainier et al. (1993) Nature 362:747-749), and Southern analysis of methylation of the H19 promoter CpG island was performed as described (Reik et al. (1994) Hum. Mol. Genet. 4:2379-2385). Filters were hybridized with the 1.8 kb Pst I fragment of H19, which detects imprint-specific methylation (Steenman et al. (1994) Nature Genet. 7:433-439). For analysis of allele-specific methylation, 1 µg DNA was digested with BamH I or with BamH I plus Hpa
In order to determine whether treatment with 5-azaCdR altered methylation of this imprint-specific region, cells were digested with Pst I and Sma I, as described (Reik et al. (1994) Hum. Mol. Genet. 3:1297-1301). Normal cells show approximately 50% methylation, since the paternal allele is methylated and the maternal allele is unmethylated (Steenman et al. (1994) Nature Genet. 7:433-439; Moulton et al. (1994) Nature Genet. 7:440-447; Reik et al. (1994) Hum. Mol. Genet. 3:1297-1301). Cells with LOI show increased methylation, reflecting abnormal methylation of the maternal allele (Steenman et al. (1994) Nature Genet. 7:433-439; Moulton et al. (1994) Nature Genet. 7:440-447; Reik et al. (1994) Hum. Mol. Genet. 3:1297-1301). […]

IGF2 [2] = assay: IGF2 methylation after 5-azaCdR treatment; assay type: cell-based, human; details: data not shown
Method: as §1

IGF2 [3] = details: normal human brain cells (Hu et al.); cited from earlier work
IGF2 [4] = assay: Allele-specific expression of IGF2 in tumor cells with LOI (RT-PCR, Apa I digestion); assay type: cell-based, human
Method: (§2) Cell Culture and Treatment With 5-azaCdR. JEG-3 human choriocarcinoma and COLO-205 human colon adenocarcinoma cell lines were obtained from ATTC. Cells were cultured in RPMI 1640, 10% fetal calf serum, 5% CO2, with antibiotics. 10^4-10^5 cells in 6 cm dishes were treated with 0.3-10 µM 5-azaCdR for 24 hours. Cultures were washed in Hank's buffered saline solution and grown to confluence. Concentrations of 0.3-3.0 µM caused minimal cytotoxicity (0-30%).
(§3) Analysis of Gene Expression. For quantitative analysis of gene expression, total RNA was isolated as described (Chomczynski, P. and Sacchi, N. (1987) Anal. Biochem. 162:156-159), and 10 µg was electrophoresed in 1.2% agarose gels containing formaldehyde, and was transferred to Hybond-N + membranes (Amersham) and hybridized as described with H19 and IGF2 probes (Steenrnan et al. (1994) Nature Genet. 7:433-439). Hybridization with GAPDH was used as a control for RNA loading. […] Each sample was analyzed in duplicate in the presence and absence of reverse transcriptase to exclude DNA contamination. Gels were blotted and hybridized with a ^32P-labeled internal specific oligonucleotide probe (Rainier et al. (1993) Nature 362:747-749), and quantified with a PhosphorImager (Molecular Dynamics).

[5] = Cytotoxicity of 24 hour 5-azaCdR treatment in cell culture; assay type: cell-based; details: human, jeg-3 and colo-205 cells, Concentrations of 0.3-3.0 µM
Method: as §2

IGF2 [6] = details: mouse cells with maternal disomy for chromosome 7 (Eversole-Cire et al.); cited from earlier work
H19 [7] = assay: Allele-specific methylation of H19 (Hpa II digestion, PCR, Alu I); assay type: cell-based, human; details: Hpa II digestion before PCR (Fig. 2B)
Method: as §1
After digestion, enzymes were inactivated by heating to 100° for 10 min. 50 ng digested DNA was added to the PCR reaction mix in Buffer F (Invitrogen), containing primers HP1 (5'-TACAACC-ACTGCACTACCTG-3') and H3 (5'-[…]-3') (Hashimoto et al. (1995) Nat. Genet. 9:109-110). One initial cycle (94°C, 4 min.) was followed by 28 cycles of 94°C, 1 min., 60°C, 1 min., 72° C, 1 min. PCR products (227 bp) were digested with Alu I, electrophoresed on 3% Nusieve/1% agarose gels, transferred to Hybond-N+ membranes (Arnersham), and hybridized with an internal oligonucleotide probe HP2 (5'-[…]-3'), and then quantified with a PhosphorImager (Molecular Dynamics). […]

H19 [8] = assay: Quantitative H19 expression in tumor cells with LOI (Northern blot, PhosphorImager); assay type: cell-based; details: Homo sapiens, 24 h, read-out: increase in H19 expression
Method: as §2
Analysis of Gene Expression. For quantitative analysis of gene expression, total RNA was isolated as described (Chomczynski, P. and Sacchi, N. (1987) Anal. Biochem. 162:156-159), and 10 µg was electrophoresed in 1.2% agarose gels containing formaldehyde, and was transferred to Hybond-N + membranes (Amersham) and hybridized as described with H19 and IGF2 probes (Steenrnan et al. (1994) Nature Genet. 7:433-439). Hybridization with GAPDH was used as a control for RNA loading. For analysis of allele-specific expression, 0.5 µg RNA was treated with DNase I (Boehringer Mannheim), heated to 95°C for 7 minutes, and RT-PCR was performed as described for both IGF2 and H19 (Rainier et al. (1993) Nature 362:747-749), although nested PCR using primers HP1 and HP2 (Hashimoto et al. (1995) Nat. Genet. 9:109-110) was performed for H19 analysis. PCR products were digested with either Apa I (for IGF2 analysis) or Alu I (for H19 analysis) as described (Tadokoro et al. (1991) Nucleic Acids Res. 19:6967), and electrophoresed on 4% Nusieve-agarose (3:1) gels. Each sample was analyzed in duplicate in the presence and absence of reverse transcriptase to exclude DNA contamination. Gels were blotted and hybridized with a ^32P-labeled internal specific oligonucleotide probe (Rainier et al. (1993) Nature 362:747-749), and quantified with a PhosphorImager (Molecular Dynamics).

H19 [9] = assay: Allele-specific expression of H19 in tumor cells with LOI (RT-PCR, Alu I digestion); assay type: cell-based, human; details: JEG-3 cells
Method: as §2, §3

## lankacyclin [compound 145118]
Tumor cells with LOI; additional drugs tested
  alteration in imprinting and/or cytotoxic effects: at least some alteration in imprinting and/or cytotoxic effects
Tumor cells with LOI
  effective concentration: 10^-4M
  Allele ratio 1.0=complete LOI: 1.8

## Methyl-13-hydroxy-15-oxokaurenoate [compound 620358]
Cancer cells
  total effectiveness score > 20 or an in vivo cell kill effect seen directly: scored above the threshold for referral for xenograft testing
Tumor cells with LOI; additional drugs tested
  alteration in imprinting and/or cytotoxic effects: at least some alteration in imprinting and/or cytotoxic effects
Tumor cells with LOI
  effective concentration: 10^-4M
  Allele ratio 1.0=complete LOI: 2.6

## aspiculamycin HCL [200692-A]
[1]
  Predicted concentration: 10^-2M

## C#CC[C@@]12CC(=O)C[C@@H]1CCC1(C2)OCCO1.C#CC[C@]12CC(=O)CC[C@H]1CC(=O)C2 [compound 619948]
Tumor cells with LOI
  effective concentration: 10^-4M
  Allele ratio 1.0=complete LOI: 1.8

## O=C1ON(Cc2ccccc2)C(c2ccccc2)N1c1ccccc1 (stereo not drawn) [compound 624645]
Tumor cells with LOI
  effective concentration: 10^-4M
  Allele ratio 1.0=complete LOI: 1.8

## C/C=C1/C(=O)O[C@]23C=C[C@@H]4C(C(=O)OC)=CO[C@H](O[C@@H]12)[C@@H]43 [compound 112152, plumericine]
Cancer cells
  total effectiveness score > 20 or an in vivo cell kill effect seen directly: scored above the threshold for referral for xenograft testing
Tumor cells with LOI
  effective concentration: 10^-3M
  Allele ratio 1.0=complete LOI: 1.2

## Nc1ccccc1 [compound 176889, benzenamine]
Tumor cells with LOI; additional drugs tested
  alteration in imprinting and/or cytotoxic effects: at least some alteration in imprinting and/or cytotoxic effects
Tumor cells with LOI
  Allele ratio 1.0=complete LOI: 3.7

## gndimacrin [252940-S]
[1]
  Predicted concentration: 10^-4M

## Nc1ncn([C@H]2C[C@H](O)[C@@H](CO)O2)c(=O)n1 [5-azaCdR, 5-aza-2'-deoxycytidine]
H19 promoter CpG island; COLO-205 (data not shown)
  changes in DNA methylation of the H19 CpG island: reproducible
H19 promoter CpG island; after treatment with 0.3 or 1.0 µM (Fig. 2A), normal cells approximately 50%
  methylation of the H19 CpG island: approximately 50%
IGF2 [2]
  IGF2 methylation: not affected
IGF2 [3]
  allelic expression of IGF2: switched IGF2 from a pattern of preferential expression of one allele to equal biallelic expression
IGF2 [4]; COLO-205 colorectal carcinoma cells (data not shown)
  allelic expression of IGF2: a switch from biallelic to predominately monoallelic expression of IGF2
IGF2 [4]; JEG-3 cells, single 24 hr treatment with increasing doses (0.3, 0.6, 1.0 µM)
  allelic expression of IGF2: unequal expression of the two IGF2 alleles, with preferential expression of the allele lacking the Apa I polymorphic site
Cancer cells
  total effectiveness score > 20 or an in vivo cell kill effect seen directly: scored above the threshold for referral for xenograft testing
[5]
  cytotoxicity at 24 h: 0 to 30%
IGF2 [6]
  expression of the maternal IGF2 gene: epigenetic activation of the normally silent maternal IGF2 gene
H19 [7]
  allele specificity of altered H19 methylation: one allele was preferentially affected
H19 [8]; COLO-205 cells, 1.0 µM (data not shown)
  fold induction at 1 µM: 20
H19 [8]; JEG-3 cells, 0.3 µM
  fold induction at 0.3 µM: 30
H19 [8]; JEG-3 cells, 1.0 µM
  fold induction at 1 µM: 50
H19 [9]
  allele-specific expression of H19: monoallelic expression of the allele containing the Alu I polymorphic site

## CC1=CC(=O)C(C)=CC1=O [compound 15309, phlorone]
Cancer cells
  total effectiveness score > 20 or an in vivo cell kill effect seen directly: scored above the threshold for referral for xenograft testing
Tumor cells with LOI
  effective concentration: 10^-3M
  Allele ratio 1.0=complete LOI: 1.3

## CC(C)/C(Cl)=N\OC(=O)NNc1ccccc1 [compound 682841]
[1]
  Predicted concentration: 10^-4M

## Blue Platinum uracil [compound 180512]
Tumor cells with LOI
  alteration in imprinting and/or cytotoxic effects: at least some alteration in imprinting and/or cytotoxic effects
  effective concentration: 10^-2M
  Allele ratio 1.0=complete LOI: 45.0

## CC(=O)O[C@@H]1[C@@H](C)/C=C/C(C)(C)[C@H](OC(C)=O)C[C@@H](OC(C)=O)/C(C)=C/[C@H]2[C@@H](OC(=O)c3ccccc3)[C@@H](C)C[C@]12OC(C)=O [compound 666860, euphornin D]
[1]
  Predicted concentration: 10^-4M

## COc1nc(NC2OC(CO)C(O)C(O)C2O)c(N)c(=O)[nH]1 (stereo not drawn) [compound 624646]
Cancer cells
  total effectiveness score > 20 or an in vivo cell kill effect seen directly: scored above the threshold for referral for xenograft testing
Tumor cells with LOI
  effective concentration: 10^-4M
  Allele ratio 1.0=complete LOI: 2.2

## cis-CCNU [compound 153174]
Tumor cells with LOI
  effective concentration: 10^-4M
  Allele ratio 1.0=complete LOI: 1.6
